Laboratory results: patent US20080194546A1, “Pyrido-, Pyrazo- and Pyrimido-Pyrimidine Derivatives as mTOR Inhibitors” (KuDOS Pharmaceuticals Limited, priority 2005, published 2008)

target: T1, mTOR (Homo sapiens, UniProt P42345); test: Biological Assay: mTOR enzyme activity, mTOR immunoprecipitated from HeLa cell cytoplasmic extract, recombinant PHAS-1 as substrate; format: biochemical; conditions: Biological Assay, upper bounds; read-out: IC50 values against mTOR
T1 construct: mTOR protein was isolated from HeLa cell cytoplasmic extract by immunoprecipitation; endogenous in cells; host or cells: HeLa cell cytoplasmic extract (immunoprecipitate)
Text: For mTOR enzyme activity assays, mTOR protein was isolated from HeLa cell cytoplasmic extract by immunoprecipitation, and activity determined essentially as described previously using recombinant PHAS-1 as a substrate (ref. 21).

SMILES | IC50 [nM]
COc1ccc(-c2ccc3c(N4CCOCC4)nc(N4C[C@@H](C)O[C@@H](C)C4)nc3n2)cc1CNCCC1CCCN1C (some centres unmarked) [Example 8ai] | < 100
COc1ccc(-c2ccc3c(N4CCOCC4)nc(N4C[C@@H](C)O[C@@H](C)C4)nc3n2)cc1CNCC1CCCO1 (some centres unmarked) [Example 8aj] | < 100
CCSCCNCc1cc(-c2ccc3c(N4CCOCC4)nc(N4C[C@@H](C)O[C@@H](C)C4)nc3n2)ccc1OC [Example 8ak] | < 100
COc1ccc(-c2ccc3c(N4CCOCC4)nc(N4C[C@@H](C)O[C@@H](C)C4)nc3n2)cc1CNc1cc[nH]n1 [Example 8al] | < 100
COc1ccc(-c2ccc3c(N4CCOCC4)nc(N4C[C@@H](C)O[C@@H](C)C4)nc3n2)cc1CNC(=S)N1CCCCC1 [Example 8am] | < 1000
COc1ccc(-c2ccc3c(N4CCOCC4)nc(N4C[C@@H](C)O[C@@H](C)C4)nc3n2)cc1CNCCc1cccs1 [Example 8an] | < 100
COC(=O)[C@H](NCc1cc(-c2ccc3c(N4CCOCC4)nc(N4C[C@@H](C)O[C@@H](C)C4)nc3n2)ccc1OC)c1ccccc1 [Example 8ao] | < 1000
COc1ccc(-c2ccc3c(N4CCOCC4)nc(N4C[C@@H](C)O[C@@H](C)C4)nc3n2)cc1CNCc1cccc(CN)c1 [Example 8ap] | < 100
COc1ccc(-c2ccc3c(N4CCOCC4)nc(N4C[C@@H](C)O[C@@H](C)C4)nc3n2)cc1CNC(C)CO (some centres unmarked) [Example 8aq] | < 100
COc1ccc(-c2ccc3c(N4CCOCC4)nc(N4C[C@@H](C)O[C@@H](C)C4)nc3n2)cc1CNC(Cc1ccc(O)cc1)C(=O)O (some centres unmarked) [Example 8ar] | < 100
COc1ccc(-c2ccc3c(N4CCOCC4)nc(N4C[C@@H](C)O[C@@H](C)C4)nc3n2)cc1CNCCCCCNC(=O)OC(C)(C)C [Example 8as] | < 100
COc1ccc(-c2ccc3c(N4CCOCC4)nc(N4C[C@@H](C)O[C@@H](C)C4)nc3n2)cc1CNCc1cccc([N+](=O)[O-])c1 [Example 8at] | < 1000
COc1ccc(-c2ccc3c(N4CCOCC4)nc(N4C[C@@H](C)O[C@@H](C)C4)nc3n2)cc1CN[C@H](C)c1ccc([N+](=O)[O-])cc1 [Example 8au] | < 1000
COc1ccc(-c2ccc3c(N4CCOCC4)nc(N4C[C@@H](C)O[C@@H](C)C4)nc3n2)cc1CNC1CCc2ccccc21 (some centres unmarked) [Example 8av] | < 100
COc1ccc(-c2ccc3c(N4CCOCC4)nc(N4C[C@@H](C)O[C@@H](C)C4)nc3n2)cc1CNCc1ccc([35Cl])cc1[35Cl] [Example 8aw] | < 100
COc1ccc(-c2ccc3c(N4CCOCC4)nc(N4C[C@@H](C)O[C@@H](C)C4)nc3n2)cc1CNCc1ccccc1[35Cl] [Example 8ax] | < 100
COc1ccc(-c2ccc3c(N4CCOCC4)nc(N4C[C@@H](C)O[C@@H](C)C4)nc3n2)cc1CNc1ccc(N2CCOCC2)cc1 [Example 8ay] | < 1000
COc1ccc(-c2ccc3c(N4CCOCC4)nc(N4C[C@@H](C)O[C@@H](C)C4)nc3n2)cc1CNC(c1ccccc1)c1ccccc1 [Example 8az] | < 1000
COc1ccc(-c2ccc3c(N4CCOCC4)nc(N4C[C@@H](C)O[C@@H](C)C4)nc3n2)cc1CNC1CC1 [Example 8b] | < 100
COc1ccc(-c2ccc3c(N4CCOCC4)nc(N4C[C@@H](C)O[C@@H](C)C4)nc3n2)cc1CNc1ccc(OCc2ccccc2)cc1 [Example 8ba] | < 1000
COc1ccc(-c2ccc3c(N4CCOCC4)nc(N4C[C@@H](C)O[C@@H](C)C4)nc3n2)cc1CNCC(O)c1cccc(O)c1 (some centres unmarked) [Example 8bb] | < 100
COc1ccc(-c2ccc3c(N4CCOCC4)nc(N4C[C@@H](C)O[C@@H](C)C4)nc3n2)cc1CNCCCc1ccccc1 [Example 8bc] | < 100

system: T47D cells; test: Cell Proliferation Assay (GI50), sulforhodamine B (SRB) assay; format: cell-based; conditions: Homo sapiens, 120 hours, SRB, upper bounds
Protocol: Cell growth was assessed using the sulforhodamine B (SRB) assay (A). T47D (ECACC, 85102201) cells were routinely passaged in RPMI (Invitrogen, 42401018) plus 10% foetal calf serum (FCS), 1% L-glutamine (Gibco BRL, 25030) to a confluence not greater than 80%. To undertake the assay, T47D cells were seeded at 2.5×10^3 cells/well in […] RPMI plus 10% foetal calf serum, 1% L-glutamine in 96 well plates (Costar, 3904) and incubated at 37° C. (+5% CO2) in a humidified incubator. Once the cells had fully adhered (typically following 4-5 hours incubation) the plate was removed from the incubator and 10 μL of the diluent added to the control wells (A1-12 and B1-12). Compound was prepared in a six point semi-log dilution at 10× the final concentration required e.g. for a 6 point range of 30 μM to 100 nM in semi-log steps dilution started at 300 μM in stock plate. Dosing was completed by addition of 10 μL of compound at highest concentration to C1-12 through to the lowest concentration in H1-12. The plates were then incubated for 120 hours prior to SRB analysis.
Upon completion of incubation, media was removed and the cells fixed with […] of ice cold 10% (w/v) trichloroacetic acid. The plates were incubated at 4° C. for 20 minutes and then washed four times with water. Each well of cells was then stained with 100 μl of 0.4% (w/v) SRB (Sulforhodamine B, Sigma, Poole, Dorset, UK, Catalogue number S-9012) in 1% acetic acid for 20 minutes before washing four times with 1% acetic acid. Plates were then dried for 2 hours at room temperature. The dye from the stained cells was solubilized by the addition of 100 μl of 10 mM Tris Base into each well. Plates were gently shaken and left at room temperature for 30 minutes before measuring the optical density at 564 nm on a Microquant microtiter plate reader. The concentration of inhibitor eliciting a 50% reduction in growth (GI50) was determined by analysis of staining intensity of the treated cells as a percentage of the vehicle control wells using Excelfit software.
(A) Skehan, P., Storung, R., Scudiero, R., Monks, A., McMahon, J., Vistica, D., Warren, J. T., Bokesch, H., Kenny, S. and Boyd, M. R. (1990) New […] cytotoxicity assay for anticancer-drug screening. J. Natl. Cancer Inst. 82, 1107-1112.

SMILES | GI50 [nM]
COc1ccc(-c2ccc3c(N4CCOCC4)nc(N4C[C@@H](C)O[C@@H](C)C4)nc3n2)cc1CNCCC1CCCN1C (some centres unmarked) [Example 8ai] | < 300
COc1ccc(-c2ccc3c(N4CCOCC4)nc(N4C[C@@H](C)O[C@@H](C)C4)nc3n2)cc1CNCC1CCCO1 (some centres unmarked) [Example 8aj] | < 300
CCSCCNCc1cc(-c2ccc3c(N4CCOCC4)nc(N4C[C@@H](C)O[C@@H](C)C4)nc3n2)ccc1OC [Example 8ak] | < 300
COc1ccc(-c2ccc3c(N4CCOCC4)nc(N4C[C@@H](C)O[C@@H](C)C4)nc3n2)cc1CNc1cc[nH]n1 [Example 8al] | < 300
COc1ccc(-c2ccc3c(N4CCOCC4)nc(N4C[C@@H](C)O[C@@H](C)C4)nc3n2)cc1CNC(=S)N1CCCCC1 [Example 8am] | < 300
COc1ccc(-c2ccc3c(N4CCOCC4)nc(N4C[C@@H](C)O[C@@H](C)C4)nc3n2)cc1CNCCc1cccs1 [Example 8an] | < 300
COC(=O)[C@H](NCc1cc(-c2ccc3c(N4CCOCC4)nc(N4C[C@@H](C)O[C@@H](C)C4)nc3n2)ccc1OC)c1ccccc1 [Example 8ao] | < 300
COc1ccc(-c2ccc3c(N4CCOCC4)nc(N4C[C@@H](C)O[C@@H](C)C4)nc3n2)cc1CNCc1cccc(CN)c1 [Example 8ap] | < 300
COc1ccc(-c2ccc3c(N4CCOCC4)nc(N4C[C@@H](C)O[C@@H](C)C4)nc3n2)cc1CNC(C)CO (some centres unmarked) [Example 8aq] | < 300
COc1ccc(-c2ccc3c(N4CCOCC4)nc(N4C[C@@H](C)O[C@@H](C)C4)nc3n2)cc1CNC(Cc1ccc(O)cc1)C(=O)O (some centres unmarked) [Example 8ar] | < 300
COc1ccc(-c2ccc3c(N4CCOCC4)nc(N4C[C@@H](C)O[C@@H](C)C4)nc3n2)cc1CNCCCCCNC(=O)OC(C)(C)C [Example 8as] | < 300
COc1ccc(-c2ccc3c(N4CCOCC4)nc(N4C[C@@H](C)O[C@@H](C)C4)nc3n2)cc1CNCc1cccc([N+](=O)[O-])c1 [Example 8at] | < 300
COc1ccc(-c2ccc3c(N4CCOCC4)nc(N4C[C@@H](C)O[C@@H](C)C4)nc3n2)cc1CN[C@H](C)c1ccc([N+](=O)[O-])cc1 [Example 8au] | < 300
COc1ccc(-c2ccc3c(N4CCOCC4)nc(N4C[C@@H](C)O[C@@H](C)C4)nc3n2)cc1CNC1CCc2ccccc21 (some centres unmarked) [Example 8av] | < 300
COc1ccc(-c2ccc3c(N4CCOCC4)nc(N4C[C@@H](C)O[C@@H](C)C4)nc3n2)cc1CNCc1ccc([35Cl])cc1[35Cl] [Example 8aw] | < 300
COc1ccc(-c2ccc3c(N4CCOCC4)nc(N4C[C@@H](C)O[C@@H](C)C4)nc3n2)cc1CNCc1ccccc1[35Cl] [Example 8ax] | < 300
COc1ccc(-c2ccc3c(N4CCOCC4)nc(N4C[C@@H](C)O[C@@H](C)C4)nc3n2)cc1CNc1ccc(N2CCOCC2)cc1 [Example 8ay] | < 300
COc1ccc(-c2ccc3c(N4CCOCC4)nc(N4C[C@@H](C)O[C@@H](C)C4)nc3n2)cc1CNC(c1ccccc1)c1ccccc1 [Example 8az] | < 300
COc1ccc(-c2ccc3c(N4CCOCC4)nc(N4C[C@@H](C)O[C@@H](C)C4)nc3n2)cc1CNC1CC1 [Example 8b] | < 300
COc1ccc(-c2ccc3c(N4CCOCC4)nc(N4C[C@@H](C)O[C@@H](C)C4)nc3n2)cc1CNc1ccc(OCc2ccccc2)cc1 [Example 8ba] | < 300
COc1ccc(-c2ccc3c(N4CCOCC4)nc(N4C[C@@H](C)O[C@@H](C)C4)nc3n2)cc1CNCC(O)c1cccc(O)c1 (some centres unmarked) [Example 8bb] | < 300
COc1ccc(-c2ccc3c(N4CCOCC4)nc(N4C[C@@H](C)O[C@@H](C)C4)nc3n2)cc1CNCCCc1ccccc1 [Example 8bc] | < 300
